Data on six molecules can be found in patent publication US20250144050A1, “AMINOTHIOL-CONJUGATES, COMPOSITIONS, AND METHODS OF USE THEREOF” (THE BURLINGTON HC RESEARCH GROUP, INC., priority 2021, published 2025).

Read-outs that look alike come from different tables or passages of the source. A value given as a limit tells only on which side of the number the result lay.

In data set [1] the test system is C3H/10T1/2 cells. The following applies: 1 milliM; before, during, and after radiation exposure; cited from earlier work.
For data set [2] the following is noted: injection at 500-910 mg/m^2; cited from earlier work.
For data set [3] the following is noted: some in vitro studies; cited from earlier work.
The conditions of data set [4]: mice, cited from earlier work.
Data set [5] deals with human cancer cell lines. The experiment in a line: CyQUANT cell viability assay, 48-hour exposure, panel averages. Particulars: for GI50: Homo sapiens, 48 h. As for the experimental part:
After drug treatments, fluorescence readings from 96-well plates were obtained using the CyQUANT dye and compared to standard curves for each cell line to determine cell viability. […] Trypan blue exclusion was used to estimate cell numbers in a few pilot experiments and was thereafter applied to confirm cell death.
A series of experiments was conducted to assess the relative efficacy of 4SP65, 1LP65, and amifostine as single agents in the same human cancer cell lines. First, the effectiveness of 4SP65 was tested against 15 cancer cell lines derived from seven tissues. […] The effectiveness of 0 to ≤500 μM amifostine was tested in sets of cancer cell lines reported to have either medium, high, or no expression of alkaline phosphatase.
Trans. R Soc. Lond. […] Using cell numbers based on fluorescence measurements and standard curves [time zero, (Tz), control growth, (C), and test growth in the presence of drug at five or more concentration levels (Ti)], the percentage growth was calculated at each drug concentration level. The percentage of growth inhibition was calculated as follows:
The LC50/99 was calculated using Equation 2=−50 and Eq. 2=−99, respectively. […] For NHMECs, the relationships between drug exposure levels and fluorescence units were used to define dose-response metrics. The selectivity index (SI) values for individual drug treatments were calculated as IC50 levels in NHMECs divided by the IC50 values in cancer cell lines.

In data set [6] the test system is radiation-induced tumors. The following applies: WR2721 plus radiation (87% with radiation alone); cited from earlier work.
The conditions of data set [7]: 400 mg/kg; 206 cGy gamma rays; female mice; cited from earlier work.
Data set [8] has as its system mouse splenocytes. Particulars: cited from earlier work.
The subject of data set [9] is angiostatin. The following applies: cited from earlier work.
Data set [10] has as its system Sa-NH sarcoma cells. Particulars: 50 mg/kg every other day for 6 days; delayed from 12 days; cited from earlier work.
The conditions of data set [11]: cited from earlier work.
The conditions of data set [12]: Children; cited from earlier work.
The test system of data set [13] is NCI-H460 NSCLC cells. Type of data set: cell-based. Particulars: NCI-H460; each drug alone; 48 h.
Experimental: (§1) Trypan Blue exclusion was applied as a complementary confirmation probe for cell death.
(§2) Statistical comparisons of differences in individual dose-response metrics between individual/paired drug treatments and various cell lines were conducted using the Student's t-test, with P-values <0.05 considered significant.
(§3) Relative cell growth inhibition values for differing levels each drug alone and in combination were input into SynergyFinder to generated dose-response curves for each drug alone, to produce a dose-response matrix, to visualize the distribution of areas of differing degrees of synergism in a 2-dimension heatmap and 3-dimension volcano plot, and to calculate average and maximum synergy scores in selected human cancer cell lines. […] Synergy scores <10 means that the interaction between two drugs was likely to be antagonistic; scores from −10 to 10 means the interaction between two drugs was likely to be additive; and scores >10 means the interaction between two drugs was likely to be synergistic.
Data set [14] relates to HMESO-1 malignant mesothelioma cells. Type of data set: cell-based. Particulars: HMESO-1; each drug alone; 48 h.
Experimental: as §1, §2, §3
The test system of data set [15] is PPM-Mill malignant mesothelioma cells. Type of data set: cell-based. The following applies: PPM-Mill; each drug alone; 48 h.
Experimental: as §1, §2, §3
The subject of data set [16] is SKOV3 ovarian cancer cells. The data set is classed as cell-based.
Experimental: as §1, §2, §3
Data set [17] concerns TOV21G ovarian cancer cells. The data set is classed as cell-based. The following applies: TOV21G, 48 h.
Experimental: as §1, §2, §3
In data set [18] the test system is A549 NSCLC cells.
Experimental: as §1, §2, §3
Data set [19] concerns MDA-MB-231 cells. The following applies: cited from earlier work.
For data set [20], the system named is metastatic melanoma. Particulars: patients with advanced malignant melanoma; cited from earlier work.
The test system of data set [21] is H1975 cells. The following applies: H1975, each drug alone, 48 h.
Experimental: as §1, §2, §3
The conditions of data set [22]: cited from earlier work. This is another data set of the same source.
Data set [23] deals with PC3 cells. Particulars: cited from earlier work.
Where [24] appears, read: each drug alone, 48 h, cisplatin series.
The mark [25] stands for this setting: each drug alone, 48 h, gefitinib series.

Take `NCCCNCCS` [WR1065, 2-(3-aminopropyl)aminoethanethiol]: the protection factor in data set [1] is 3.23. For the same molecule, in data set [2], the peak plasma level was roughly 100 µM and the “plasma T1/2” value was roughly 0.167 h. Moreover, in [3], the lowest efficacious concentration was 0.4 µM. For the same molecule, in [4] (i.p.), the “maximally tolerated dose (MTD)” value is recorded as 432 mg/kg BW. Further, the “maximally tolerated dose (MTD)” value in [4] (p.o.) is 720 mg/kg BW.
Regarding `CNCCCNCCCS` [WR151326], in [1], the protection factor is listed as 1.8.
As for `NCCCNCCSP(=O)(O)O` [amifostine], the GI50 is 47 to 81 µM in data set [5] (read-out: GI50, range, four of 14 cell lines with moderate/high alkaline phosphatase expression, 48 hours); 113 to 378 µM in data set [5] (read-out: GI50, range, seven of 14 cell lines, 48 hours); greater than 500 µM in data set [5] (read-out: exposure failing to induce growth inhibitory effects (GI50), three of 14 cell lines, 48 hours). In addition, the “exposure without cytolytic effects (LC50/LC99)” value in data set [5] (any of 14 cell lines, 48 hours) is greater than 500 µM. The “concentration inducing TGI level effects” value in [5] (only HCC38 and PC3) is greater than 100 µM. Further, the mice developing tumors in data set [6] is reported as 26%. In [7], the “extension of total life expectancy” value is listed as 65 days. The “reduction of cyclophosphamide-induced HPRT mutations” value in data set [8] is recorded as 8 fold. Moreover, in data set [9] (200 mg/ml (instead of 50 mg/ml)), the “change of angiostatin levels” value is listed as “did not change angiostatin levels”. The “increase of serum angiostatin levels” value in data set [9] (mouse, in vivo) is 4 fold. Besides, the “days for tumors to reach ideal size for amputation” value in [10] was 13 days. For the same molecule, the “level with no observable cytotoxicity” value in [11] (kidney (in vivo)) was > 17,000 picomol/10 (6) cells; in [11] (liver (in vivo)) it was > 7400 picomol/10 (6) cells; in data set [11] (small intestine (in vivo)) it was > 3000 picomol/10 (6) cells. Besides, in data set [12], the “single dose with no untoward effects” value was “up to 2700 mg/m2”.
Take `N.N.[Cl][Pt][Cl]` [cisplatin, reference compound]: the GI50 was determined as 3.1 ± 0.1 µM in [13]; 3 ± 0.4 µM in data set [14]; 27.2 ± 3.4 µM in data set [15]; 5.3 ± 0.4 µM in [16] (SKOV3, each drug alone, 48 h); 2.2 ± 0.4 µM in [17] (each drug alone); 3.5 ± 0.7 µM in [18] (setting [24]). Besides, in data set [19], the GI50 is 22.4 µM. The half-maximal inhibitory concentration (IC50) in data set [13] stood at 4 ± 0.1 µM; in data set [14] it was 8.6 ± 1.1 µM; in data set [15] it was 40.5 ± 8.1 µM; in [16] (SKOV3, each drug alone, 48 h), 6.7 ± 0.6 µM; in data set [17] (each drug alone), 3 ± 0.3 µM; in [18] (setting [24]) it was 4.7 ± 0.8 µM. Moreover, the LC99 entry in data set [13] was “ND (>15) μM”; in data set [14] it was “ND (>15) μM”; in [15] it was “ND (>100) μM”; in data set [16] (SKOV3, each drug alone, 48 h), “ND (>21) μM”; in [17] (each drug alone) it was 17.2 µM; in data set [17] (each drug alone, listed as DDP), 17.2 ± 5.2 µM. In addition, in data set [18] (setting [24]), the LC99 amounted to 24.4 ± 2.6 µM. The total growth inhibition concentration (TGI) entry is “ND (>15) μM” in data set [13]; 6.7 ± 0.7 µM in data set [14]; “ND (>100) μM” in [15]; “ND (>21) μM” in data set [16] (SKOV3, each drug alone, 48 h); 6.7 ± 0.3 µM in data set [17] (each drug alone); 8.2 ± 1.0 µM in data set [18] (setting [24]). Further, the “LC99, amount of each drug in combination” value in data set [17] (4SP65-cisplatin combined) is 5.9 µM; in [18] (4SP65-cisplatin combined, 48 h) it was 7 µM. Besides, the “reduction in starting cell numbers” value in data set [18] (6 μM cisplatin alone) is 56%. In addition, the partial response in [20] is listed as 10%.
As for `COc1cc2ncnc(Nc3ccc(F)c(Cl)c3)c2cc1OCCCN1CCOCC1` [gefitinib, reference compound], the LC99 entry in [18] (setting [25]) and in data set [21] was “ND (>25) μM” in each case. The total growth inhibition concentration (TGI) was greater than 25 µM in data set [18] (setting [25]); “ND (>25) μM” in data set [18] (each drug alone, 48 h, gefitinib series, listed as GEF); greater than 25 µM in data set [21]; “ND (>25) μM” in data set [21] (listed as GEF). The Cmax in [22] (250 mg daily, cancer patients, read-out: Cmax plasma concentrations) is 0.5 to 1 µM. The figures for the trough levels in [22] (after 3 days of treatment) and in [22] (after 8 days of treatment) were 0.257 to 4.50 µM and 0.282 to 6.55 µM, respectively. Moreover, the elimination half-life in data set [22] (in vivo) was 48 h.
Consider `CC(=O)O[C@H]1C(=O)[C@@]2(C)[C@H]([C@H](OC(=O)c3ccccc3)[C@]3(O)C[C@H](OC(=O)[C@H](O)[C@@H](NC(=O)c4ccccc4)c4ccccc4)C(C)=C1C3(C)C)[C@]1(OC(C)=O)CO[C@@H]1C[C@@H]2O` [paclitaxel, reference compound], for which the “fold lower dose than 1LP65 at the GI50 level” value in [16] (SKOV3 cells) is on record as 77 fold. The GI50 in data set [23] was 36.4 µM.

In general, IC50 refers to the concentration that gives 50% inhibition. What is called TGI is the concentration giving total growth inhibition. High values mean less potent growth arrest, low ones more potent growth arrest.
